According to patent publication US10947242B2, “[1,2,4]triazolo[1,5and#8208;A]pyrimidine compounds as PDE2 inhibitors” (Janssen Pharmaceutica NV, priority 2016, dated 2021):
Where a name gives a salt, the structure may show the parent alone. Read-outs that look alike come from different tables or passages of the source.

What was measured:
Format in all cases: biochemical
[1] = biological target: T1, Human recombinant PDE2A (hPDE2A) (Homo sapiens, UniProt O00408); assay: In vitro assay PDE2A (SPA, 3H-cGMP hydrolysis); conditions: for Emax: read-out: hPDE2A Emax
T1 construct: His tag (inferred from metal chelate purification); made in house; host or cells: Sf9 insect cells (baculovirus)

[2] = biological target: T2, Human recombinant PDE3A (hPDE3A) (Homo sapiens, UniProt Q14432); assay: In vitro assay PDE3A (SPA, 3H-cAMP hydrolysis); conditions: for IC50: hPDE3B pIC50, read-out: pIC50 (converted); for Emax: read-out: hPDE3B Emax, read-out: Emax;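 on all read-outs here: the method names PDE3A and the table heading PDE3B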
T2 construct: purchased Scottish Biomedical; host or cells: Sf9 insect cells
Description: Human recombinant PDE3A (hPDE3A) was supplied as a partially purified insect cell lysate by Scottish Biomedical, it was cloned from human brain and expressed in Sf9 cells. Tested compounds were dissolved and diluted in 100% DMSO to a concentration 100 fold of the final concentration in the assay. Compound dilutions (0.4 μl) were added in 384 well plates to 20 μl of incubation buffer (50 mM Tris pH 7.8, 8.3 mM MgCl2, 1.7 mM EGTA). 10 μl of hPDE3A enzyme in incubation buffer was added and the reaction was started by addition of 10 μl substrate to a final concentration of 0.4 μM cAMP and 2.4 μCi/ml [^3H]-cAMP. The reaction was incubated for 60 min at room temperature. […] After sedimentation of the beads during 30 min the radioactivity was measured in a Perkin Elmer Topcount scintillation counter and results were expressed as cpm. For blanc values the enzyme was omitted from the reaction and replaced by incubation buffer. Control values were obtained by addition of a final concentration of 1% DMSO instead of compound.

[3] = biological target: T3, Human recombinant PDE10A (hPDE10A) (Homo sapiens, UniProt Q9Y233); assay: In vitro assay PDE10A, human clone (SPA, 3H-cAMP hydrolysis)
T3 construct: His tag (inferred from metal chelate purification); made in house; host or cells: Sf9 insect cells (baculovirus)
Description: Rat recombinant PDE10A (rPDE10A2) was expressed in Sf9 cells using a recombinant rPDE10A baculovirus construct. […] Tested compounds were dissolved and diluted in 100% DMSO to a concentration 100 fold of the final concentration in the assay. Human recombinant PDE10A ([…]) was expressed in Sf9 cells using a recombinant hPDE10A baculovirus that was made and amplified in house. […] Compound dilutions (0.4 μl) were added in 384 well plates to 20 μl of incubation buffer (50 mM Tris pH 7.8, 8.3 mM MgCl2, 1.7 mM EGTA). 10 μl of rPDE10A or hPDE10A enzyme in incubation buffer was added and the reaction was started by addition of 10 μl substrate to a final concentration of 60 nM cAMP and 0.008 μCi ^3H-cAMP. The reaction was incubated for 60 minutes at room temperature. […] After sedimentation of the beads during 30 minutes the radioactivity was measured in a Perkin Elmer Topcount scintillation counter and results were expressed as cpm. For blanc values the enzyme was omitted from the reaction and replaced by incubation buffer. Control values were obtained by addition of a final concentration of 1% DMSO instead of compound.

[4] = read-out: hPDE2A pIC50 (converted)
[5] = human clone (h), default, read-out: hPDE10A2 Emax
[6] = human clone (h), default, read-out: hPDE10A2 pIC50 (converted)
[7] = human clone by default (no (r) mark), read-out: hPDE10A2 or rPDE10A2 Emax
[8] = human clone by default (no (r) mark), read-out: hPDE10A2 or rPDE10A2 pIC50 (converted)
[9] = human recombinant PDE2A, 10 μM cGMP substrate, read-out: hPDE2A pIC50 (converted)
[10] = hPDE2A pIC50, human recombinant PDE2A, 10 μM cGMP substrate

T2 sequence (Q14432 whole entry): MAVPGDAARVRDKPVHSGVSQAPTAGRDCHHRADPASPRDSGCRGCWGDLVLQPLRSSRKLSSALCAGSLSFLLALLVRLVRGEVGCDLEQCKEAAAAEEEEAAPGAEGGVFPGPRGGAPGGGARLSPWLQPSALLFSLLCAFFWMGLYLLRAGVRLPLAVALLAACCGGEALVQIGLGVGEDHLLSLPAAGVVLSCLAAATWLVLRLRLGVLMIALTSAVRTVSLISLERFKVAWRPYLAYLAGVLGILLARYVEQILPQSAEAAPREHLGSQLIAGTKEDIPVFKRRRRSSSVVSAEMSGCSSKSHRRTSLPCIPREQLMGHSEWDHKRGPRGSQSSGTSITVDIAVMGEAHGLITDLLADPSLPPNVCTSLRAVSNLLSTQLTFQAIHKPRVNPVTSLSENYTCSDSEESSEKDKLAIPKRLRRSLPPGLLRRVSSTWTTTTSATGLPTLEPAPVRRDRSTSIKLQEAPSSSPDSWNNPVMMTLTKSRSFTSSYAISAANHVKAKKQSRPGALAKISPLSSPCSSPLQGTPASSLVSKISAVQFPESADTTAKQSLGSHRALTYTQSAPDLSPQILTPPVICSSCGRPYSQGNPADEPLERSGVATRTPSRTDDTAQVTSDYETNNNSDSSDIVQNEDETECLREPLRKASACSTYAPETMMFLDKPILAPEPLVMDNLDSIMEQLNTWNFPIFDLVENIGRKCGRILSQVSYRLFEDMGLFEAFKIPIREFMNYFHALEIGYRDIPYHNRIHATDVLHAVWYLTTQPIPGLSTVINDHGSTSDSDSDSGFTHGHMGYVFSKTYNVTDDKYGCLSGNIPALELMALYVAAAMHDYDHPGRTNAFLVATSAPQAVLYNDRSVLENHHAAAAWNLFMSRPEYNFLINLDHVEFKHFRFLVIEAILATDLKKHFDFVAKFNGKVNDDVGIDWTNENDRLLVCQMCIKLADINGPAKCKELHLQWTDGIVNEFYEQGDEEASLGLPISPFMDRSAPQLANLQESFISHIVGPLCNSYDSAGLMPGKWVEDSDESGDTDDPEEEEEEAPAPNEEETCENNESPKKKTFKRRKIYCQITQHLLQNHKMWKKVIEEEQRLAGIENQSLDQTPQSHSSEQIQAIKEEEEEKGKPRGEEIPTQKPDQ
T1 sequence (O00408 whole entry): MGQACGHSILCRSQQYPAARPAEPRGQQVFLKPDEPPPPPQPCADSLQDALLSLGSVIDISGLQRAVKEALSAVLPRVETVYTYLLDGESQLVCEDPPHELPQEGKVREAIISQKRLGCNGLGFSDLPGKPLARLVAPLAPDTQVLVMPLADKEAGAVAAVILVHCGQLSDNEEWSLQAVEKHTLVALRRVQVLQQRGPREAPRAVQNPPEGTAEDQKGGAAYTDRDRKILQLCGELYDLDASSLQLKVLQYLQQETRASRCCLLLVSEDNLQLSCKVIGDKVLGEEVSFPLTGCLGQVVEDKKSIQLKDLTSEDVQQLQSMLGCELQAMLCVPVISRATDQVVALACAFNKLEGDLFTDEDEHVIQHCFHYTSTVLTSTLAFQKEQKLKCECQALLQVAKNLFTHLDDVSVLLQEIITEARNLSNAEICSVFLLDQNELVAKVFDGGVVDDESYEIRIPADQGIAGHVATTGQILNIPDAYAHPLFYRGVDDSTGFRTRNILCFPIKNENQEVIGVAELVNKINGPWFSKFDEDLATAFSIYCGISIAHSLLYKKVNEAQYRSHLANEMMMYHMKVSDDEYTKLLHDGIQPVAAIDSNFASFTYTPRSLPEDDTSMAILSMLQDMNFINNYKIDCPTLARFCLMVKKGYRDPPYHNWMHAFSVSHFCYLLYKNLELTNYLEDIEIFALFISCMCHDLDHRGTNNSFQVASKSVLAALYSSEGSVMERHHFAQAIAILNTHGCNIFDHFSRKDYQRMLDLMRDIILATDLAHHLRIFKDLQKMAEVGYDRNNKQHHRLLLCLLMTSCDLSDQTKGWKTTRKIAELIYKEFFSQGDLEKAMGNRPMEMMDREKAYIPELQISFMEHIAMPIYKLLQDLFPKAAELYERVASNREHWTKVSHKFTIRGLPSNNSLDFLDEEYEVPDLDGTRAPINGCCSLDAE
T3 sequence (Q9Y233 267-1055): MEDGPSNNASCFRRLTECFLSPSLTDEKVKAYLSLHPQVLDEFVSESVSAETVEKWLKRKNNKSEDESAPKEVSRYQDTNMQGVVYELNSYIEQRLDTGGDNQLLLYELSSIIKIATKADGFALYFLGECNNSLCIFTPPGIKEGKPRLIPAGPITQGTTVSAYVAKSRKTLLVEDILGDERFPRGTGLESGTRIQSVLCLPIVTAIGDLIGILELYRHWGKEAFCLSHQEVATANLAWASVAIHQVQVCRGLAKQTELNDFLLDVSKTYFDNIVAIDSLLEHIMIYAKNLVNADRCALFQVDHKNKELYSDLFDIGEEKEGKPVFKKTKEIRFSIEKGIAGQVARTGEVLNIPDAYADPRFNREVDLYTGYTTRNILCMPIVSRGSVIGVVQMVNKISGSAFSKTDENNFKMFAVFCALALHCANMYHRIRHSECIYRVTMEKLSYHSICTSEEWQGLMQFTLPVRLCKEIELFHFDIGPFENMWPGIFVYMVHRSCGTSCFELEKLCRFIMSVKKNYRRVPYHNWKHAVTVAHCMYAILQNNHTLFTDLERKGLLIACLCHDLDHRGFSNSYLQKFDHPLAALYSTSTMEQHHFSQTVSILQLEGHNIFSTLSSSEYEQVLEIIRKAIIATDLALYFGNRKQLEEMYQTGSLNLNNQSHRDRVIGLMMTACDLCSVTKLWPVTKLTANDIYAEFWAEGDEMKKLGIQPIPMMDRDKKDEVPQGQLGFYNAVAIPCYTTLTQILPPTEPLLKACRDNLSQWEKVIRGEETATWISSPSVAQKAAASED

Row | SMILES | Emax [1] [%] | IC50 [1, 4] [µM] | IC50 [2] [µM] | Emax [2] [%] | Emax [3, 5] [%] | IC50 [3, 6] [µM] | IC50 [1, 9] [µM] | Emax ([1]; human recombinant PDE2A) [%] | Emax [3, 7] [%] | IC50 [3, 8] [µM] | IC50 ([1]; hPDE2A pIC50) [µM] | IC50 [1, 10] [µM]
1 | Cc1cc(C(=O)N2[C@H]3CC[C@@H]2[C@H](c2cc(C(F)F)nc4ncnn24)CC3)cc(C2CC2)n1 [Compound 274] | 97 | 0.288 | > 10 | 7 | 63 | 6.03 |  |  | 63 | 6.03 |  | 
2 | Cc1cc([C@@H]2CN(C(=O)c3cc4ccccc4o3)CC[C@H]2C)n2ncnc2n1 [Compound 8] | 100 | 0.0011 | 0.275 | 97 | 100 | 0.0112 | 0.0011 | 100 |  |  |  | 
3 | Cc1cc([C@H]2CN(C(=O)c3ccc(C)c(C)n3)CC[C@@H]2C)n2ncnc2n1 [Compound 3b] | 64 |  | > 10 | 14 | 19 | > 10 |  |  |  |  | 5.62 | 5.62
4 | Cc1ccc(C(=O)N2[C@H]3CC[C@H](c4cc(C(F)F)nc5ncnn45)[C@@H]2CC3)o1 [Compound 354] | 100 | 0.0891 | 9.77 | 45 |  |  |  |  | 70 | 4.47 |  | 
5 | O=C(c1ccc2c(c1)OC(F)(F)O2)N1[C@H]2CC[C@H](c3cc(C(F)F)nc4ncnn34)[C@@H]1CC2 [Compound 350] | 100 | 0.0251 | 4.9 | 74 |  |  |  |  | 85 | 2.09 |  | 
6 | Cc1cc(C(=O)N2CC[C@H](C)[C@@H](c3cc(C(F)F)nc4ncnn34)C2)cc(C)n1 [220 (•HCl)] | 54 |  |  |  | 27 | > 10 |  |  |  |  |  | 0.977

More lines, main results first:

Row | Emax [1] [%] | IC50 [1, 4] [µM] | IC50 [2] [µM] | Emax [2] [%] | Emax [3, 5] [%] | IC50 [3, 6] [µM] | IC50 [1, 9] [µM] | Emax ([1]; human recombinant PDE2A) [%] | SMILES | Emax [3, 7] [%] | IC50 [3, 8] [µM] | IC50 ([1]; hPDE2A pIC50) [µM] | IC50 [1, 10] [µM]
7 | 95 | 0.269 | > 10 | 28 | 58 | 7.76 |  |  | C[C@@H]1CCN(C(=O)c2cnc(CF)cn2)C[C@H]1c1cc(C(F)F)nc2ncnn12 [Compound 255] | 58 | 7.76 |  | 
8 | 99 | 0.00955 | > 10 | 21 | 93 | 0.457 | 0.00955 | 99 | C[C@@H]1CCN(C(=O)c2cnn(C)c2)C[C@H]1c1cc(C(F)F)nc2ncnn12 [Compound 177] |  |  |  | 
9 | 59 | 7.08 | > 10 | 17 | 1 | > 10 | 7.08 | 59 | Cc1cc(C(=O)N2CC[C@@H](C)[C@@](F)(c3cc(C(F)F)nc4ncnn34)C2)cc(C)n1 [Compound 81] |  |  |  | 
10 | 100 | 0.00174 | 0.0617 | 101 | 99 | 0.0776 | 0.00174 | 100 | Cc1c(C(=O)N2CC[C@@H](C)[C@H](c3cc(C(F)F)nc4ncnn34)C2)sc2ccccc12 [Compound 119] |  |  |  | 
11 | 98 | 0.00398 | 5.13 | 66 | 99 | 0.0537 | 0.00398 | 98 | C[C@@H]1CCN(C(=O)c2ccc(O)c(F)c2)C[C@H]1c1cc(C(F)F)nc2ncnn12 [Compound 168] |  |  |  | 
12 | 99 | 0.151 | 1.55 | 89 | 90 | 1.26 |  |  | C[C@@H]1CCN(C(=O)c2cc(C(C)(C)C)on2)C[C@H]1c1cc(C(F)F)nc2ncnn12 [Compound 258] | 90 | 1.26 |  | 
13 | 98 | 0.0219 | 3.31 | 79 | 87 | 1.2 |  |  | COc1nc(C)c(C(=O)N2CC[C@@H](C)[C@H](c3cc(C(F)F)nc4ncnn34)C2)s1 [Compound 185] |  |  |  | 
14 | 100 | 0.000813 | 0.513 | 92 | 98 | 0.0741 | 0.000813 | 100 | C[C@@H]1CCN(C(=O)c2ccc3ncoc3c2)C[C@H]1c1cc(C(F)F)nc2ncnn12 [Compound 104] |  |  |  | 
